Source: PubChem BioAssay (NCI)
Values joined by “and” are separate entries in the source; they are usually repeats but may differ in a detail not shown here. Equal values may be shown once.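 Interpolation was linear, between the two tested concentrations surrounding the appropriate level; five concentrations were tested over 48 hours in 96-well plates. Abbreviation: GI50, concentration required for 50% inhibition of growth. At the TGI there is no net growth.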

Assays:
Experiment in all cases: inhibition of tumour cell growth, NCI panel, 48 h
MOLT-4 leukemia = system: MOLT-4 leukemia
OVCAR-8 ovarian = system: OVCAR-8 ovarian
HT29 colon = system: HT29 colon
OVCAR-4 ovarian = system: OVCAR-4 ovarian
RXF 393 renal = system: RXF 393 renal
T-47D breast = system: T-47D breast
TK-10 renal = system: TK-10 renal
SK-OV-3 ovarian = system: SK-OV-3 ovarian
NCI-H460 lung = system: NCI-H460 lung
UACC-257 melanoma = system: UACC-257 melanoma

Row | Compound | TGI (MOLT-4 leukemia) | TGI (OVCAR-8 ovarian) | TGI (HT29 colon) | TGI (OVCAR-4 ovarian) | TGI (RXF 393 renal) | TGI (T-47D breast) | TGI (TK-10 renal) | TGI (SK-OV-3 ovarian) | TGI (NCI-H460 lung) | TGI (UACC-257 melanoma) | GI50 (MOLT-4 leukemia) | GI50 (OVCAR-8 ovarian) | GI50 (HT29 colon) | GI50 (OVCAR-4 ovarian) | GI50 (RXF 393 renal) | GI50 (T-47D breast) | GI50 (TK-10 renal) | GI50 (SK-OV-3 ovarian) | GI50 (NCI-H460 lung) | GI50 (UACC-257 melanoma)
1 | Cc1cc(N2CCN(C)CC2)n2nc(-c3ccc(Cl)cc3)nc2n1 | > 100 µM | > 100 µM | > 100 µM | > 100 µM | > 100 µM | > 100 µM | > 100 µM | > 100 µM | > 100 µM | > 100 µM | – | – | – | – | – | – | – | – | – | –
2 | COc1cc2cc(Oc3ccc(NC(=O)Nc4ccc(Cl)c(Cl)c4)cc3)c(C)nc2cc1OC | 22.8 µM | 12.9 µM | 4.89 µM | 8.3 µM | 16.7 µM | 10.1 µM | 9.18 µM | 26.4 µM | 10.1 µM | 6.28 µM | 3.02 µM | 3.54 µM | 2.34 µM | 2.67 µM | 4.28 µM | 2.7 µM | 3.46 µM | 7.56 µM | 2.46 µM | 2.31 µM
3 | CCN(CC)Cc1cc2[nH]c3c4ccc(Cl)cc4ncc3c2cc1OC | > 21.8 µM and 6.8 µM | 12.2 µM and 7.41 µM | 5.6 µM and 4.82 µM | 4.33 µM and 3.4 µM | 4.25 µM and 3.27 µM | 31.7 µM and 33.6 µM | 11.2 µM and 5.62 µM | 27.3 µM and 12.1 µM | 4.55 µM and 5.11 µM | 6.92 µM and 3.45 µM | 2.24 µM and 2.56 µM | 3.63 µM and 2.5 µM | 1.78 µM and 1.91 µM | 1.9 µM and 1.54 µM | 2.07 µM and 1.68 µM | 16.5 µM and 17.4 µM | 5.4 µM and 2.62 µM | 14.2 µM and 3.63 µM | 1.99 µM and 2.19 µM | 2.79 µM and 1.82 µM
4 | COc1ccc(/C(C#N)=C2C=C/C(=N/O)c3ccccc3\2)cc1 | 12.6 µM | 13.1 µM | 4.53 µM | 39.1 µM | 20.6 µM | 39.7 µM | 28 µM | 3.4 µM | 1.23 µM | 22.7 µM | 0.357 µM | 0.327 µM | 0.705 µM | 0.927 µM | 0.437 µM | 13.7 µM | 11.3 µM | 0.301 µM | 0.31 µM | 10.5 µM
5 | O=C(Nc1nc2ccccc2s1)Nc1ccc([N+](=O)[O-])cc1Cl | > 47.4 µM | 4.99 µM | 21.9 µM | 3.68 µM | 3.28 µM | 11.7 µM | 7.87 µM | 22.2 µM | 6.81 µM | 14.2 µM | 5.92 µM | 2.13 µM | 7.3 µM | 1.86 µM | 1.59 µM | 2.86 µM | 3.18 µM | 8.52 µM | 2.42 µM | 5.62 µM
6 | N#CC1c2ccccc2C=CN1C(=O)N(c1ccccc1)c1ccccc1 (stereo not given) | 7.45 µM | 54.1 µM | 11.5 µM | 8.29 µM | 3.2 µM | 4.45 µM | 3.58 µM | 31.3 µM | 34.2 µM | 6.2 µM | 2.44 µM | 13.3 µM | 3.56 µM | 2.99 µM | 1.73 µM | 1.87 µM | 1.89 µM | 16.5 µM | 15.9 µM | 2.29 µM
7 | CN1C(=O)C2(c3ccccc31)N(c1ccc(Cl)cc1)C(=O)C2(c1ccccc1)c1ccccc1 (stereo not given) | > 100 µM | > 100 µM | > 100 µM | > 100 µM | > 100 µM | > 100 µM | > 100 µM | > 100 µM | > 100 µM | > 100 µM | 9.86 µM | > 100 µM | 11 µM | 5.1 µM | 64.6 µM | 6.29 µM | > 100 µM | > 100 µM | 52.2 µM | 47.6 µM
8 | CN(Cc1cnc2nc(N)nc(N)c2n1)c1ccc(C(=O)NC(CCC(=O)O)C(=O)O)cc1Br (stereo not given) | > 46.3 µM | > 100 µM | > 100 µM | > 100 µM | 5.01 µM | > 100 µM | > 100 µM | > 100 µM | 4.9 µM | 16.5 µM | < 0.01 µM | < 0.01 µM | < 0.01 µM | 13.7 µM | 0.459 µM | 0.113 µM | < 0.01 µM | 0.047 µM | < 0.01 µM | 0.168 µM
9 | C=CC(=O)N1CC2(CC(n3nc(-c4ccc5c(cnn5C)c4)c(-c4c(Cl)c(C)cc5[nH]ncc45)c3C)C2)C1 | 9 µM | 4.84 µM | 29.5 µM | 14.8 µM | 3.49 µM | 19.3 µM | 12.8 µM | 18.2 µM | 10.3 µM | 6.57 µM | 1.74 µM | 2.13 µM | 3.62 µM | 3.52 µM | 1.6 µM | 3.97 µM | 3.18 µM | 5.17 µM | 3.12 µM | 2.16 µM
10 | O=C1NC(=NCCCc2ccccc2)S/C1=C\c1ccc2ncccc2c1 | 18.9 µM | 16.8 µM | > 21.4 µM | 13.6 µM | 10.4 µM | 12.3 µM | 10.5 µM | 12.2 µM | 11.8 µM | 22.9 µM | 7.31 µM | 5.94 µM | 6.55 µM | 3.72 µM | 3.89 µM | 4.73 µM | 4.15 µM | 5.33 µM | 4.08 µM | 6.73 µM
11 | CCOC(=O)c1cnc2c(C)cccc2c1Nc1ccc(C(C)=O)cc1 | > 100 µM | > 100 µM | > 100 µM | 55.3 µM | 63.8 µM | 44.9 µM | 82.9 µM | > 100 µM | > 100 µM | > 100 µM | 43.6 µM | 33.8 µM | 19.2 µM | 13.5 µM | 4.23 µM | 8.2 µM | 32.8 µM | 75.8 µM | 59.3 µM | 79.9 µM
12 | CC[n+]1c(/C=C/C=C2\N(C)c3ccccc3C2(C)C)sc2ccccc21 | 11.6 µM | 8.54 µM | 9.74 µM | 7.19 µM | 10.3 µM | 11.8 µM | 13.2 µM | 13.9 µM | 8.93 µM | 9.02 µM | 4.44 µM | 4.31 µM | 4.74 µM | 3.85 µM | 4.33 µM | 4.65 µM | 5.06 µM | 5.71 µM | 4.5 µM | 4.64 µM
